Experimental data as given in article PMC11396935, “Exploration of Compounds with 2-Phenylbenzo[d]oxazole Scaffold as Potential Skin-Lightening Agents through Inhibition of Melanin Biosynthesis and Tyrosinase Activity” (Molecules, 2024).
Where two headings read alike, the source gives them in different places.

Experiments:
[1] = target: T1, mushroom tyrosinase (Agaricus bisporus, UniProt C7FF04); assay: Mushroom tyrosinase activity inhibition assay (L-tyrosine or L-dopa as substrate); type: biochemical; conditions: for IC50: mushroom tyrosinase, 37 °C, mean ± SEM of triplicates
T1 construct: purchased Sigma-Aldrich (St. Louis, MO, USA)
T1 sequence (C7FF04 1-392 limits assumed): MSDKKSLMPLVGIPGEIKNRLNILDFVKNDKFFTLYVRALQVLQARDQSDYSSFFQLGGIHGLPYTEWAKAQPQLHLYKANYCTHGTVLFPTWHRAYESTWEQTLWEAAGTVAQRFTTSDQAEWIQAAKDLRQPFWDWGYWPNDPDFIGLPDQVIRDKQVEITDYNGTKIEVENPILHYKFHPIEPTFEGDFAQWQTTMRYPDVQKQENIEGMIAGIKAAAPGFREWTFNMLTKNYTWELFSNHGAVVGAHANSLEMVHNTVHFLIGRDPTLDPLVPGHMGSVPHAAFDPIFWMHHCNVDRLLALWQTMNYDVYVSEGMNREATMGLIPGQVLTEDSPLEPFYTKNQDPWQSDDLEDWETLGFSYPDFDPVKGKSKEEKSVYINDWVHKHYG
Description: 3.3. Tyrosinase Activity Assay Using Mushroom Tyrosinase
The tyrosinase inhibitory activity of the 2-phenylbenzoxazoles was evaluated using a mushroom tyrosinase activity assay, following a previously described method. An aqueous substrate mixture, consisting of phosphate buffer (pH 6.5; 17.2 mM) and L-tyrosine or L-dopa (345 μM), was prepared. A 96-well plate containing the test sample in dimethyl sulfoxide (DMSO) solution (10 μL), aqueous mushroom tyrosinase solution (20 μL; 200 units), and aqueous substrate mixture (170 μL) in each well was incubated at 37 °C for 15 min for L-dopa and 30 min for L-tyrosine, respectively.

[2] = test system: B16F10 tyrosinase in situ; conditions: compounds 1, 2, 5 μM; kojic acid 5 μM; α-MSH + IBMX 72 h; excess L-dopa
Description: To evaluate the effect of the compounds on in situ tyrosinase activity, an experiment using B16F10 cells was performed as previously described [34, 35]. […] Excess L-dopa was added to increase their melanin production prior to the acquisition of cell images.
In Situ Tyrosinase Activity Assay Using B16F10 Cells and L-dopa
In situ tyrosinase activity was measured in B16F10 cells using L-dopa, as reported previously [34]. […] The cells were processed as follows: (1) fixing with 4% paraformaldehyde for 40 min, (2) washing with PBS, and (3) permeabilizing with 0.1% Triton X-100 for 2 min. After washing with PBS, the cells were stained with L-dopa (2 mM; 500 μL) at 37 °C for 2 h. Stained images were collected using a camera connected to a microscope (Motic, Hong Kong).

[3] = test system: B16F10 cells; assay: B16F10 cell viability assay (EZ-Cytox); type: cell-based, murine; conditions: 0, 1, 2, 5 μM
Description: Since the 2-phenylbenzoxazole compounds 3, 8, and 13 were identified as being potent mushroom tyrosinase inhibitors, they were used in B16F10-cell-based experiments. Before assessing the biological impact of compounds 3, 8, and 13 in the B16F10 cells, the effect of these compounds on B16F10 cell viability was evaluated. The cells were treated with the compounds at concentrations of 0, 1, 2, and 5 μM for 48 and 72 h, respectively.
3.7. B16F10 Cell Viability Assay
Test samples (3, 8, and 13) were added to each well at final concentrations of 0, 1, 2, and 5 μM and cultivated for 48 and 72 h, respectively. Each well was treated with 10 μL of EZ-Cytox solution (EZ-1000®, DoGenBio, Seoul, Republic of Korea) and cultivated for 2 h. The absorbance of each well was measured at 450 nm using an ELISA reader.

[4] = target: T1, mushroom tyrosinase; assay: Kinetic study using mushroom tyrosinase (Lineweaver–Burk and Dixon plots); type: biochemical; conditions: for inhibition mode (Lineweaver–Burk plots): substrate L-dopa 0.5–16 mM; for Ki: substrate L-dopa 1, 2, 4, 8 mM, read-out: inhibition constant Ki (Dixon plot)
Description: For the inhibition mechanism study of the 2-phenylbenzoxazole compounds, kinetic studies of mushroom tyrosinase were conducted. […] Kinetic experiments were performed using various concentrations of L-dopa. Lineweaver–Burk plots were obtained for each compound by plotting the inverse of the L-dopa concentration against the inverse of the initial rate of dopachrome production (Figure 4). In the Lineweaver–Burk plots (Figure 4B,C), the lines for compounds 8 and 13 merged at one point on the y-axis, whereas the lines for 3 (Figure 4A) merged at one point in the second quadrant.
These Dixon plots were obtained by plotting the inhibitor concentration against the inverse of the initial dopachrome production rate (Figure 5). The four lines for each Dixon plot were merged at one point in the second quadrant. The absolute x-coordinate of each merged point represents the Ki value of each compound.
3.4. Kinetic Study Experiment Using Mushroom Tyrosinase
Mushroom tyrosinase was incubated with 2-phenylbenzoxazole inhibitors (3, 8, or 13) in the presence of various concentrations (0.5–16 mM) of L-dopa to measure the initial dopachrome production rate. An aqueous substrate mixture, consisting of phosphate buffer (pH 6.5; 17.2 mM) and L-dopa (345 μM), was prepared. A 96-well plate containing the inhibitor DMSO solution (10 μL), aqueous mushroom tyrosinase solution (20 μL; 20 units), and aqueous substrate mixture (170 μL) in each well was incubated for 20 min at 37 °C. During incubation, the absorbance at 475 nm was recorded at 5 min intervals using an ELISA reader to prepare Lineweaver–Burk plots for each inhibitor.

[5] = ABTS radical cation scavenging assay; conditions: 100 μM
Description: For ABTS^+• scavenging experiments, ABTS^+• was generated by oxidizing ABTS using potassium persulfate. All test samples (Trolox [TR; positive material] and 1–15) were used at a final concentration of 100 μM. […] Both compounds share a common catechol structure. […] Similar results were obtained in the DPPH radical scavenging experiment. […] Compounds 4, 9, and 14, bearing a 4-hydroxy-3-methoxyphenyl, scavenged ABTS^+• moderately (23–51%).
3.15. 2,2′-Azino-bis(3-ethylbenzothiazoline-6-sulfonic Acid) (ABTS) Radical Cation Scavenging Assay
The effect of the 2-phenylbenzoxazole compounds 1–15 on radical scavenging was assessed using an ABTS assay, as previously reported. An ABTS aqueous solution (7 mM) was mixed with a K2S2O8 aqueous solution (2.45 mM) in equal volumes (each 20 mL) and incubated in the dark for 20 h at 25 °C to generate ABTS^+•. The ABTS^+• solution was then diluted with pure EtOH to adjust the absorbance of the solution to 0.7 ± 0.02 at 730 nm. The test samples (1–15 and Trolox [positive control]) were dissolved in a co-solvent of EtOH and DMSO (9:1, v/v) to make a 1 mM solution. The diluted ABTS^+• solution was mixed with the test sample solution at a volume ratio of 9:1 (90 μL:10 μL) and the mixture was stored for 2 min at 20 °C in the dark. The optical density was measured at 730 nm using an ELISA reader at 1 min intervals for 10 min. All test samples were used at a final concentration of 100 µM.
ABTS^+• radical scavenging activity (%) = [(ODcon − ODsam)/ODcon] × 100, where ODsam and ODcon represent the absorbances of the test sample and the control, respectively.

[6] = test system: B16F10 cells; assay: Cellular melanin content assay in B16F10 cells; type: cell-based, murine; conditions: 72 h; for melanin content in B16F10 cells: 1, 2, 5 μM, α-MSH 1 μM + IBMX 200 μM; for melanin content in B16F10 cells at 5 μM vs kojic acid: compound 5 μM, kojic acid 5 μM, α-MSH + IBMX
Description: The B16F10 cells were exposed to each compound (1, 2, and 5 μM) for 1 h. Following this, stimulators (1 μM α-MSH [α-melanocyte-stimulating hormone] and 200 μM IBMX [3-isobutyl-1-methylxanthine]) were treated for 72 h. Kojic acid (5 μM) was utilized as a comparative control.
3.8. Cellular Melanin Content Level Assay in B16F10 Cells
The effects of compounds 3, 8, and 13 on B16F10 cellular melanin production were investigated using a previously reported method. B16F10 cells (5 × 10^3 cells per well) were seeded in a 6-well plate and cultured under the same conditions as the cell culture for 24 h. […] Stimulators, including 1 μM α-melanocyte-stimulating hormone (α-MSH) and 200 μM 3-isobutyl-1-methylxanthine (IBMX), were then added. After 72 h of cultivation, the cells were rinsed with PBS, detached from the bottom of each well using Trypsin-EDTA, and centrifuged for 10 min at 10,000× g and 4 °C. The obtained pellets were lysed with 100 μL of 1N-NaOH solution for 1 h at 60 °C and transferred to a 96-well plate. The optical density was measured at 405 nm using an ELISA reader. Normalization was conducted using a Pierce BCA Protein Assay Kit (Thermo Scientific, MA, USA).
Melanin content (%) = (ΔODsam/ΔODcon) × 100%, where ODsam and ODcon represent the optical densities of the sample and control, respectively.

[7] = substrate L-dopa, 15 min, read-out: IC50 Values, L-Dopa
[8] = substrate L-tyrosine, 30 min, read-out: IC50 Values, L-Tyrosine

| Structure (SMILES) | IC50 [1, 7] [µM] | IC50 [1, 8] [µM] | tyrosinase potency relative to kojic acid ([1]; substrate L-tyrosine) [times] | melanin formation, in situ tyrosinase activity in B16F10 cells [2] | cytotoxicity to B16F10 cells, 48 h [3] | cytotoxicity to B16F10 cells, 72 h [3] | inhibition mode (Lineweaver–Burk plots) [4] | ABTS+• scavenging activity (% inhibition) [5] [%] | melanin content in B16F10 cells [6] | melanin content in B16F10 cells at 5 μM vs kojic acid [6] | Ki [4] [µM] |
| --- | --- | --- | --- | --- | --- | --- | --- | --- | --- | --- | --- |
| Cc1ccc2nc(-c3ccc(O)cc3O)oc2c1 [Compound 3, 4-(6-Methylbenzo[d]oxazol-2-yl)benzene-1,3-diol] | 16.8 ± 0.57 | 0.51 | 28 | reduced melanin formation in a concentration-dependent manner | not cytotoxic | weak cytotoxicity at the highest concentration tested | mixed-type inhibitor | 57 | decreased the melanin content in a concentration-dependent manner | decreased the melanin content levels much more strongly than kojic acid | – |
| Oc1ccc(-c2nc3ccc(Cl)cc3o2)c(O)c1 [Compound 8, 4-(6-Chlorobenzo[d]oxazol-2-yl)benzene-1,3-diol] | 20.4 ± 1.99 | 2.22 ± 0.16 | – | reduced melanin formation in a concentration-dependent manner | not cytotoxic | did not show cytotoxicity | competitive inhibitors | 64 | decreased the melanin content in a concentration-dependent manner | decreased the melanin content levels much more strongly than kojic acid | 12.5 |
| Cc1ccc2oc(-c3ccc(O)cc3O)nc2c1 [Compound 13, 4-(5-Methylbenzo[d]oxazol-2-yl)benzene-1,3-diol] | 20.8 ± 1.02 | 3.5 ± 0.07 | – | reduced melanin formation in a concentration-dependent manner | not cytotoxic | did not show cytotoxicity | competitive inhibitors | 54 | decreased the melanin content in a concentration-dependent manner | – | 17.2 |
